# Species on record: Rattus norvegicus
# Assay: DrugMatrix - Regimen: Daily Repeat
# Format: toxicity, organism-based, Sprague-Dawley
# Design: regimen Daily Repeat, gender Male, age 6-8 weeks
# Conditions: in vivo, po, route oral GAVAGE, […]; for POTASSIUM / SODIUM / TOTAL BILIRUBIN / TOTAL PROTEIN / URIC ACID / ALANINE AMINOTRANSFERASE / ALBUMIN / ALKALINE PHOSPHATASE / ASPARTATE AMINOTRANSFERASE / BLOOD UREA NITROGEN / CARBON DIOXIDE / CHLORIDE / CHOLESTEROL / CREATINE PHOSPHOKINASE / CREATININE / GLUCOSE / LACTATE DEHYDROGENASE / LIPASE / PHOSPHORUS: tissue Plasma; for ABSOLUTE BASOPHIL / ABSOLUTE EOSINOPHIL / ABSOLUTE LYMPHOCYTE / ABSOLUTE MONOCYTE / ABSOLUTE SEGMENTED NEUTROPHIL / BASOPHIL / EOSINOPHIL / ERYTHROCYTE COUNT / HEMATOCRIT / HEMOGLOBIN / LEUKOCYTE COUNT / LYMPHOCYTE / MEAN CORPUSCULAR HEMOGLOBIN / MEAN CORPUSCULAR HEMOGLOBIN CONCENTRATION / MEAN CORPUSCULAR VOLUME / MONOCYTE / NEUTROPHIL / NUCLEATED RED BLOOD CELLS / PLATELET COUNT: tissue Blood
# [1] = 9 mg/kg, 72 h, dose level M1, time 3 day
# [2] = 9 mg/kg, 120 h, dose level M1, time 5 day
# [3] = 36 mg/kg, 72 h, dose level High, time 3 day
# [4] = 36 mg/kg, 120 h, dose level High, time 5 day
smiles,measurement,setting,value
CS(=O)(=O)OCCCCOS(C)(=O)=O [BUSULFAN],POTASSIUM,[1],6.13 MEQ/L
same,SODIUM,[1],143.63 MEQ/L
same,TOTAL BILIRUBIN,[1],0.13 mg/dL
same,TOTAL PROTEIN,[1],5.73 G/DL
same,URIC ACID,[1],1.27 mg/dL
same,ABSOLUTE BASOPHIL,[2],0 CELLS/uL
same,ABSOLUTE EOSINOPHIL,[2],0 CELLS/uL
same,ABSOLUTE LYMPHOCYTE,[2],6323.33 CELLS/uL
same,ABSOLUTE MONOCYTE,[2],60 CELLS/uL
same,ABSOLUTE SEGMENTED NEUTROPHIL,[2],150 CELLS/uL
same,BASOPHIL,[2],0%
same,EOSINOPHIL,[2],0%
same,ERYTHROCYTE COUNT,[2],6.03 x10E6/uL
same,HEMATOCRIT,[2],36.67%
same,HEMOGLOBIN,[2],14.47 G/DL
same,LEUKOCYTE COUNT,[2],6.53 x10E3/uL
same,LYMPHOCYTE,[2],97%
same,MEAN CORPUSCULAR HEMOGLOBIN,[2],24.03 pg
same,MEAN CORPUSCULAR HEMOGLOBIN CONCENTRATION,[2],39.43 G/DL
same,MEAN CORPUSCULAR VOLUME,[2],60.83 fL
same,MONOCYTE,[2],0.67%
same,NEUTROPHIL,[2],2.33%
same,NUCLEATED RED BLOOD CELLS,[2],0 /100WBC
same,PLATELET COUNT,[2],1101.33 x10E3/uL
same,ALANINE AMINOTRANSFERASE,[2],48.67 u/L
same,ALBUMIN,[2],4.4 G/DL
same,ALKALINE PHOSPHATASE,[2],322 u/L
same,ASPARTATE AMINOTRANSFERASE,[2],84.67 u/L
same,BLOOD UREA NITROGEN,[2],8.33 mg/dL
same,CARBON DIOXIDE,[2],33 mmol/L
same,CHLORIDE,[2],99.33 MEQ/L
same,CHOLESTEROL,[2],81.67 mg/dL
same,CREATINE PHOSPHOKINASE,[2],189.67 u/L
same,CREATININE,[2],0.3 mg/dL
same,GLUCOSE,[2],133.33 mg/dL
same,LACTATE DEHYDROGENASE,[2],120 u/L
same,LIPASE,[2],11.33 u/L
same,PHOSPHORUS,[2],9.3 mg/dL
same,POTASSIUM,[2],6.08 MEQ/L
same,SODIUM,[2],145.27 MEQ/L
same,TOTAL BILIRUBIN,[2],0.13 mg/dL
same,TOTAL PROTEIN,[2],6.33 G/DL
same,URIC ACID,[2],0.77 mg/dL
same,ABSOLUTE BASOPHIL,[3],0 CELLS/uL
same,ABSOLUTE EOSINOPHIL,[3],0 CELLS/uL
same,ABSOLUTE LYMPHOCYTE,[3],7116 CELLS/uL
same,ABSOLUTE MONOCYTE,[3],0 CELLS/uL
same,ABSOLUTE SEGMENTED NEUTROPHIL,[3],417.33 CELLS/uL
same,BASOPHIL,[3],0%
same,EOSINOPHIL,[3],0%
same,ERYTHROCYTE COUNT,[3],5.94 x10E6/uL
same,HEMATOCRIT,[3],37.13%
same,HEMOGLOBIN,[3],14.47 G/DL
same,LEUKOCYTE COUNT,[3],7.53 x10E3/uL
same,LYMPHOCYTE,[3],94.33%
same,MEAN CORPUSCULAR HEMOGLOBIN,[3],24.5 pg
same,MEAN CORPUSCULAR HEMOGLOBIN CONCENTRATION,[3],39.07 G/DL
same,MEAN CORPUSCULAR VOLUME,[3],62.67 fL
same,MONOCYTE,[3],0%
same,NEUTROPHIL,[3],5.67%
same,NUCLEATED RED BLOOD CELLS,[3],0 /100WBC
same,PLATELET COUNT,[3],1000.33 x10E3/uL
same,ALANINE AMINOTRANSFERASE,[3],45.33 u/L
same,ALBUMIN,[3],4.4 G/DL
same,ALKALINE PHOSPHATASE,[3],316.33 u/L
same,ASPARTATE AMINOTRANSFERASE,[3],72.67 u/L
same,BLOOD UREA NITROGEN,[3],12 mg/dL
same,CARBON DIOXIDE,[3],33.33 mmol/L
same,CHLORIDE,[3],101.5 MEQ/L
same,CHOLESTEROL,[3],110.33 mg/dL
same,CREATINE PHOSPHOKINASE,[3],312.33 u/L
same,CREATININE,[3],0.1 mg/dL
same,GLUCOSE,[3],170.33 mg/dL
same,LACTATE DEHYDROGENASE,[3],86.33 u/L
same,LIPASE,[3],12.33 u/L
same,PHOSPHORUS,[3],10.73 mg/dL
same,POTASSIUM,[3],5.47 MEQ/L
same,SODIUM,[3],147.05 MEQ/L
same,TOTAL BILIRUBIN,[3],0.17 mg/dL
same,TOTAL PROTEIN,[3],6.3 G/DL
same,URIC ACID,[3],0.6 mg/dL
same,ABSOLUTE BASOPHIL,[4],0 CELLS/uL
same,ABSOLUTE EOSINOPHIL,[4],0 CELLS/uL
same,ABSOLUTE LYMPHOCYTE,[4],3639 CELLS/uL
same,ABSOLUTE MONOCYTE,[4],0 CELLS/uL
same,ABSOLUTE SEGMENTED NEUTROPHIL,[4],61 CELLS/uL
same,BASOPHIL,[4],0%
same,EOSINOPHIL,[4],0%
same,ERYTHROCYTE COUNT,[4],6.14 x10E6/uL
same,HEMATOCRIT,[4],38.4%
same,HEMOGLOBIN,[4],14.8 G/DL
same,LEUKOCYTE COUNT,[4],3.7 x10E3/uL
same,LYMPHOCYTE,[4],98.5%
same,MEAN CORPUSCULAR HEMOGLOBIN,[4],24.15 pg
same,MEAN CORPUSCULAR HEMOGLOBIN CONCENTRATION,[4],38.6 G/DL
same,MEAN CORPUSCULAR VOLUME,[4],62.55 fL
same,MONOCYTE,[4],0%
same,NEUTROPHIL,[4],1.5%
same,NUCLEATED RED BLOOD CELLS,[4],0 /100WBC
same,PLATELET COUNT,[4],1040 x10E3/uL
same,ALANINE AMINOTRANSFERASE,[4],36.5 u/L
same,ALBUMIN,[4],4.35 G/DL
same,ALKALINE PHOSPHATASE,[4],322.5 u/L
same,ASPARTATE AMINOTRANSFERASE,[4],72 u/L
same,BLOOD UREA NITROGEN,[4],7 mg/dL
same,CARBON DIOXIDE,[4],28 mmol/L
same,CHLORIDE,[4],100 MEQ/L
same,CHOLESTEROL,[4],78 mg/dL
same,CREATINE PHOSPHOKINASE,[4],216 u/L
same,CREATININE,[4],0.13 mg/dL
same,GLUCOSE,[4],154 mg/dL
same,LACTATE DEHYDROGENASE,[4],72 u/L
same,LIPASE,[4],10.5 u/L
same,PHOSPHORUS,[4],9.25 mg/dL
same,POTASSIUM,[4],5.75 MEQ/L
same,SODIUM,[4],145.2 MEQ/L
same,TOTAL BILIRUBIN,[4],0.1 mg/dL
same,TOTAL PROTEIN,[4],6.35 G/DL
same,URIC ACID,[4],0.5 mg/dL

# — ChEMBL document CHEMBL3885881, “DrugMatrix”
